This test concerns the target T1, GPR119 receptor (UniProt Q8TDV5, S309L, species not given).
T1 sequence (Q8TDV5 1-335 S309L): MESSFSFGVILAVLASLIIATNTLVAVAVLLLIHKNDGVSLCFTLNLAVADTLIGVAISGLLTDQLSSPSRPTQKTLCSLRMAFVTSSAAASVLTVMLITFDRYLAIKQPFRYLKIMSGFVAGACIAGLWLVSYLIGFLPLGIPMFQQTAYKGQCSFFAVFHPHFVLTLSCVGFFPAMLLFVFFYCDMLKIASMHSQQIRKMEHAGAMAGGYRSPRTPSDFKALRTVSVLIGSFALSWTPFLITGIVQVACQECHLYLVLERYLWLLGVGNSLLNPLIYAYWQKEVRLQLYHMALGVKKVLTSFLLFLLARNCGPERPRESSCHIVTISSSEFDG
Description: GPR119 signaling, cyclic AMP (cAMP) homogenous time resolved fluorescence (HTRF) assay. It is filed as cell-based. Conditions: CHO cells with Gα15 and murine GPR119, or HEK293 Flp-In cells with human GPR119 S309L; table does not say which; read-out: Activity: inflection points, denoted as EC50 values (agonist activation of GPR119, cAMP). From the text: Measurement of GPR119 Signaling Using a Cyclic AMP (cAMP) Homogenous Time Resolved Fluorescence (HTRF) Assay
Chinese hamster ovary (CHO) cell lines stably transfected with the permissive guanine nucleotide binding protein alpha 15 (Gα15) and […] GPR119 were maintained in DMEM media containing FBS, penicillin-streptomycin, puromycin, and G418 (geneticin). Alternatively, human embryonic kidney (HEK)293 Flp-In cells (Invitrogen, Carlsbad, Calif.) were stably transfected with a human SNP variant (S309L) of GPR119 and maintained in DMEM media containing FBS, penicillin-streptomycin, and hygromycin. Agonist activation of the GPR119 receptor was measured in receptor transfected cells described above, treated with compounds of this invention, using a commercial homogenous time resolved fluorescence (HTRF) kit for measurement of cAMP (CisBio, Bedford, Mass.). The assay was performed in 96-well half-volume plates (murine) or 384-well plates (human) following the manufacturers instructions. Briefly, suspended cells were incubated with a dose titration of test compound at room temperature for 60 min, lysed, and incubated with HTRF reagents for an additional 60 min. The plate was read using an Envision multilabel reader (Perkin Elmer) adjusted to read time resolved fluorescence and the cAMP concentrations were extrapolated from a cAMP calibration curve. […] The concentration of test compound required to stimulate a half-maximal response (EC50), and efficacy as compared to an internal agonist control, was determined from a sigmoidal 4-parameter curve fit of the resulting plot of normalized activity versus compound concentration.

The structures appear in SMILES notation.

In the case of `Fc1cnc(N2CCC(C3CC3CCOc3ccc(-n4cnnn4)c(F)c3)CC2)nc1` (racemic) [Ex 30d], the EC50 was < 10 nM.

In the case of `Cc1cnc(N2CCC(C3CC3CCOc3ccc(-n4cnnn4)c(F)c3)CC2)nc1` (racemic) [Ex 30e, rac cis-2-[4-(2-{2-[3-fluoro-4-(1H-tetrazol-1-yl)phenoxy]ethyl)cyclopropyl)piperidin-1-yl]-5-methylpyrimidine], the EC50 was < 10 nM.

As for `Clc1cnc(N2CCC(C3CC3CCOc3ccc(-n4ncnn4)cc3)CC2)nc1` (racemic) [Ex 31, rac cis-5-chloro-2-[4-(2-{2-[4-(2H-tetrazol-2-yl)phenoxy]ethyl}cyclopropyl)piperidin-1-yl]pyrimidine], the EC50 was in the range of 10 to 50 nM.

`Cc1nnn(-c2ccc(OCCC3CC3C3CCN(c4ncc(Cl)cn4)CC3)cc2)n1` (racemic) [Ex 31a, rac cis-5-chloro-2-[4-(2-{2-[4-(5-methyl-2H-tetrazol-2-yl)phenoxy]ethyl}cyclopropyl)piperidin-1-yl]pyrimidine]: the EC50 is < 10 nM.

With `Cc1nnnn1-c1ccc(OCCC2CC2C2CCN(c3ncc(Cl)cn3)CC2)cc1` (racemic) [Ex 31b, rac cis-5-chloro-2-[4-(2-{2-[4-(5-methyl-1H-tetrazol-1-yl)phenoxy]ethyl}cyclopropyl)piperidin-1-yl]pyrimidine], the EC50 was in the range of 10 to 50 nM.

For `Cc1nnc(-c2ccc(OCCC3CC3C3CCN(c4ncc(Cl)cn4)CC3)cc2F)o1` (racemic) [Ex 32, rac cis-5-chloro-2-[4-(2-{2-[3-fluoro-4-(5-methyl-1,3,4-oxadiazol-2-yl)phenoxy]ethyl}cyclopropyl)piperidin-1-yl]pyrimidine], the EC50 is < 10 nM.

Regarding `CC(=O)c1ccc(OCC[C@@H]2C[C@@H]2C2CCN(c3ncc(Cl)cn3)CC2)cc1` (racemic) [Ex 35, Rac-cis-1-[4-(2-{2 [1-(5-chloropyrimidin-2-yl)piperidin-4-yl]cyclopropyl}ethoxy)phenyl]ethanone], the EC50 is 50 to 200 nM.

Turning to `N#Cc1cc(OCC[C@@H]2C[C@@H]2C2CCN(c3ncc(Cl)cn3)CC2)ncn1` (racemic) [Ex 37, Rac-cis-6-(2-{2-[1-(5-chloropyrimidin-2-yl)piperidin-4-yl]cyclopropyl}ethoxy)pyrimidine-4-carbonitrile], the EC50 was < 10 nM.

As to `N#Cc1nccc(OCC[C@@H]2C[C@@H]2C2CCN(c3ncc(Cl)cn3)CC2)n1` (racemic) [Ex 38, Rac-cis-4-(2-{2-[1-(5-chloropyrimidin-2-yl)piperidin-4-yl]cyclopropyl}ethoxy)pyrimidine-2-carbonitrile], the half-maximal effective concentration (EC50) was 10 to 50 nM.

Consider `Cc1cnc(N2CCC([C@H]3C[C@H]3CCOc3cc(C#N)nc(C)n3)CC2)nc1` (racemic) [Ex 40, Rac-cis-2-methyl-6-(2-{2-[1-(5-methylpyrimidin-2-yl)piperidin-4-yl]cyclopropyl}ethoxy)pyrimidine-4-carbonitrile], for which the EC50 was < 10 nM.

In the case of `Cc1cnc(N2CCC([C@H]3C[C@H]3CCOc3cc(C)nc(C)n3)CC2)nc1` (racemic) [Ex 41, Rac-cis-2,4-dimethyl-6-(2-{2-[1-(5-methylpyrimidin-2-yl)piperidin-4-yl]cyclopropyl}ethoxy)pyrimidine], the EC50 fell in the range of 10 to 50 nM.

For the compound `Cc1nc(C#N)cc(OCC[C@@H]2C[C@@H]2C2CCN(c3ncc(Cl)c(C)n3)CC2)n1` (racemic) [Ex 42, Rac-cis-6-(2-{2-[1-(5-chloro-4-methylpyrimidin-2-yl)piperidin-4-yl]cyclopropyl}ethoxy)-2-methylpyrimidine-4-carbonitrile], the half-maximal effective concentration (EC50) was < 10 nM.

On to `Cc1nc(C#N)cc(OCC[C@@H]2C[C@@H]2C2CCN(c3ccc(Cl)cn3)CC2)n1` (racemic) [Ex 43, Rac-cis-6-(2-{2-[1-(5-chloropyridin-2-yl)piperidin-4-yl]cyclopropyl}ethoxy)-2-methylpyrimidine-4-carbonitrile], for which the EC50 was < 10 nM.

Turning to `Cc1nc(C#N)cc(OCC[C@@H]2C[C@@H]2C2CCN(c3ncc(C)c(C)n3)CC2)n1` (racemic) [Ex 44, Rac-cis-6-(2-{2-[1-(4,5-dimethylpyrimidin-2-yl)piperidin-4-yl]cyclopropyl}ethoxy)-2-methylpyrimidine-4-carbonitrile], the EC50 lay within 10 to 50 nM.

For `Cc1nc(C#N)cc(OCC[C@@H]2C[C@@H]2C2CCN(c3cc(C)c(Cl)cn3)CC2)n1` (racemic) [Ex 45, Rac-cis-6-(2-{2-[1-(5-chloro-4-methylpyridin-2-yl)piperidin-4-yl]cyclopropyl}ethoxy)-2-methylpyrimidine-4-carbonitrile], the EC50 was in the range of 10 to 50 nM.

For the compound `Cc1nc(C#N)cc(OCC[C@@H]2C[C@@H]2C2CCN(c3ncc(F)c(C)n3)CC2)n1` (racemic) [Ex 46, Rac-cis-6-(2-{2-[1-(5-fluoro-4-methylpyrimidin-2-yl)piperidin-4-yl]cyclopropyl}ethoxy)-2-methylpyrimidine-4-carbonitrile], the EC50 was < 10 nM.

Regarding `Cc1nc(C#N)cc(OCC[C@@H]2C[C@@H]2C2CCN(c3ccc(C(F)(F)F)cn3)CC2)n1` (racemic) [Ex 47, Rac-cis-2-methyl-6-[2-(2-{1-[5-(trifluoromethyl)pyridin-2-yl]piperidin-4-yl}cyclopropyl)ethoxy]pyrimidine-4-carbonitrile], the EC50 was < 10 nM.

Turning to `Clc1cnc(N2CCC([C@@H]3C[C@@H]3CCOc3cccnc3)CC2)nc1` (racemic) [Ex 48, Rac-cis-5-chloro-2-(4-{2-[2-(pyridin-3-yloxy)ethyl]cyclopropyl}piperidin-1-yl)pyrimidine], the EC50 was > 200 nM.

As to `Clc1cnc(N2CCC(C3CC3CCOc3ccncn3)CC2)nc1` (racemic) [Ex 49, Rac-cis-5-chloro-2-(4-{2-[2-(pyrimidin-4-yloxy)ethyl]cyclopropyl}piperidin-l-yl)pyrimidine], the EC50 was in the range of 50 to 200 nM.

For the compound `N#Cc1cncc(OCC[C@@H]2C[C@@H]2C2CCN(c3ncc(Cl)cn3)CC2)c1` (racemic) [Ex 50, Rac-cis-5-(2-{2-[1-(5-chloropyrimidin-2-yl)piperidin-4-yl]cyclopropyl}ethoxy)nicotinonitrile], the EC50 lay in the range of 50 to 200 nM.

Take `Cc1nc(C#N)cc(OCC[C@@H]2C[C@@H]2C2CCN(c3ncc(Cl)cn3)CC2)n1` (racemic) [Ex 51, Rac-cis-6-(2-{2-[1-(5-chloropyrimidin-2-yl)piperidin-4-yl]cyclopropyl}ethoxy)-2-methylpyrimidine-4-carbonitrile]: the EC50 was < 10 nM.

Consider `Cc1cc(OCC[C@@H]2C[C@@H]2C2CCN(c3ncc(Cl)cn3)CC2)nc(C#N)n1` (racemic) [Ex 52, Rac-cis-4-(2-{2-[1-(5-chloropyrimidin-2-yl)piperidin-4-yl]cyclopropyl}ethoxy)-6-methylpyrimidine-2-carbonitrile], for which the EC50 was < 10 nM.

Turning to `Cc1nc(C#N)cc(OCC[C@@H]2C[C@@H]2C2CCN(c3ncc(F)cn3)CC2)n1` (racemic) [Ex 53, Rac-cis-6-(2-{2-[1-(5-fluoropyrimidin-2-yl)piperidin-4-yl]cyclopropyl}ethoxy)-2-methylpyrimidine-4-carbonitrile], the EC50 is < 10 nM.

As for `N#Cc1ccc(OCC[C@@H]2C[C@@H]2C2CCN(c3ncc(Cl)cn3)CC2)cn1` (racemic) [Ex 54, Rac-cis-5-(2-{2-[1-(5-chloropyrimidin-2-yl)piperidin-4-yl]cyclopropyl}ethoxy)pyridine-2-carbonitrile], the EC50 lay within 50 to 200 nM.

For the compound `Clc1cnc(N2CCC([C@@H]3C[C@@H]3CCOc3ccncc3)CC2)nc1` (racemic) [Ex 55, Rac-cis-5-chloro-2-(4-{2-[2-(pyridin-4-yloxy)ethyl]cyclopropyl}piperidin-1-yl)pyrimidine], the EC50 is 10 to 50 nM.

For `Cc1cnc(N2CCC([C@@H]3C[C@@H]3CCOc3ccc(-c4nnc(C)o4)c(F)c3)CC2)nc1` (racemic) [Ex 84, rac-cis-2-[4-(2-{2-[3-fluoro-4-(5-methyl-1,3,4-oxadiazol-2-yl)phenoxy]ethyl}cyclopropyl)piperidin-1-yl]-5-methylpyrimidine], the EC50 was < 10 nM.

Turning to `Cc1nnc(-c2ccc(OCC[C@H]3C[C@H]3C3CCN(c4ncccn4)CC3)cc2F)o1` (racemic) [Ex 85, Rac-cis-2-[4-(2-{2-[3-fluoro-4-(5-methyl-1,3,4-oxadiazol-2-yl)phenoxy]ethyl}cyclopropyl)piperidin-1-yl]pyrimidine], the EC50 is < 10 nM.

For `Cc1nnc(-c2ccc(OCC[C@H]3C[C@H]3C3CCN(c4ncc(F)cn4)CC3)cc2F)o1` (racemic) [Ex 86, Rac-cis-5-fluoro-2-[4-(2-{2-[3-fluoro-4-(5-methyl-1,3,4-oxadiazol-2-yl)phenoxy]ethyl}cyclopropyl)piperidin-1-yl]pyrimidine], the EC50 is < 10 nM.

These data come from US8343990B2, “Substituted cyclopropyl compounds, compositions containing such compounds and methods of treatment” (Merck Sharp & Dohme Corp., priority 2008, dated 2013).
